Where two headings read alike, the source gives them in different places.
Tests used:
[1] = Chemical stability of 2% solutions of 1-acetoxychavicol acetate on storage, followed by HPLC; format: physicochemical
Experimental: 1-acetoxychavicol acetate was dissolved as a 2% solution in water ethanol (70:30), an aqueous shampoo formulation, and in various vegetable oils. […] Table 1 Assessment of stability of 2% solutions of 1-acetoxychavicol acetate in wt.-percent over time

[2] = cited from earlier work
[3] = Chemical stability of 2% solutions of 1-acetoxychavicol acetate on storage, followed by HPLC; format: physicochemical; conditions: solutions of up to 5 wt.-percent in vegetable oil, e.g. sunflower or rape seed oil; even at higher temperatures

## C=CC(OC(C)=O)c1ccc(OC(C)=O)cc1 (centres unmarked) [1-acetoxychavicol acetate]
[1]; 2% solution in the shampoo formulation
  degradation: fast degradation
[1]; 2% solution in vegetable oils, after 20 weeks of storage
  degradation: no relevant degradation
[1]; 2% solution in water (water ethanol 70:30)
  degradation: fast degradation
[1]; Aq. Ethanol, storage time 0 w
  stability of 2% solutions of 1-acetoxychavicol acetate: 100 wt.-percent
[1]; Aq. Ethanol, storage time 1 w
  stability of 2% solutions of 1-acetoxychavicol acetate: 80 wt.-percent
[1]; Aq. Ethanol, storage time 2 w
  stability of 2% solutions of 1-acetoxychavicol acetate: 60 wt.-percent
[1]; Aq. Ethanol, storage time 3 w
  stability of 2% solutions of 1-acetoxychavicol acetate: 50 wt.-percent
[1]; Aq. Ethanol, storage time 4 w
  stability of 2% solutions of 1-acetoxychavicol acetate: 30 wt.-percent
[1]; Aq. Ethanol, storage time 5 w
  stability of 2% solutions of 1-acetoxychavicol acetate: 20 wt.-percent
[1]; Aq. Ethanol, storage time 6 w
  stability of 2% solutions of 1-acetoxychavicol acetate: 0 wt.-percent
[1]; Aq. Ethanol, storage time 7 w
  stability of 2% solutions of 1-acetoxychavicol acetate: 0 wt.-percent
[1]; Aq. Ethanol, storage time 8 w
  stability of 2% solutions of 1-acetoxychavicol acetate: 0 wt.-percent
[1]; Aq. Ethanol, storage time 9 w
  stability of 2% solutions of 1-acetoxychavicol acetate: 0 wt.-percent
[1]; Aq. Ethanol, storage time 10 w
  stability of 2% solutions of 1-acetoxychavicol acetate: 0 wt.-percent
[1]; Aq. Ethanol, storage time 15 w
  stability of 2% solutions of 1-acetoxychavicol acetate: 0 wt.-percent
[1]; Aq. Ethanol, storage time 20 w
  stability of 2% solutions of 1-acetoxychavicol acetate: 0 wt.-percent
[1]; HO Rape seed oil, storage time 0 w
  stability of 2% solutions of 1-acetoxychavicol acetate: 100 wt.-percent
[1]; HO Rape seed oil, storage time 1 w
  stability of 2% solutions of 1-acetoxychavicol acetate: 100 wt.-percent
[1]; HO Rape seed oil, storage time 2 w
  stability of 2% solutions of 1-acetoxychavicol acetate: 100 wt.-percent
[1]; HO Rape seed oil, storage time 3 w
  stability of 2% solutions of 1-acetoxychavicol acetate: 100 wt.-percent
[1]; HO Rape seed oil, storage time 4 w
  stability of 2% solutions of 1-acetoxychavicol acetate: 100 wt.-percent
[1]; HO Rape seed oil, storage time 5 w
  stability of 2% solutions of 1-acetoxychavicol acetate: 100 wt.-percent
[1]; HO Rape seed oil, storage time 6 w
  stability of 2% solutions of 1-acetoxychavicol acetate: 100 wt.-percent
[1]; HO Rape seed oil, storage time 7 w
  stability of 2% solutions of 1-acetoxychavicol acetate: 100 wt.-percent
[1]; HO Rape seed oil, storage time 8 w
  stability of 2% solutions of 1-acetoxychavicol acetate: 100 wt.-percent
[1]; HO Rape seed oil, storage time 9 w
  stability of 2% solutions of 1-acetoxychavicol acetate: 100 wt.-percent
[1]; HO Rape seed oil, storage time 10 w
  stability of 2% solutions of 1-acetoxychavicol acetate: 100 wt.-percent
[1]; HO Rape seed oil, storage time 15 w
  stability of 2% solutions of 1-acetoxychavicol acetate: 100 wt.-percent
[1]; HO Rape seed oil, storage time 20 w
  stability of 2% solutions of 1-acetoxychavicol acetate: 100 wt.-percent
[1]; HO Sunflower oil, storage time 0 w
  stability of 2% solutions of 1-acetoxychavicol acetate: 100 wt.-percent
[1]; HO Sunflower oil, storage time 1 w
  stability of 2% solutions of 1-acetoxychavicol acetate: 100 wt.-percent
[1]; HO Sunflower oil, storage time 2 w
  stability of 2% solutions of 1-acetoxychavicol acetate: 100 wt.-percent
[1]; HO Sunflower oil, storage time 3 w
  stability of 2% solutions of 1-acetoxychavicol acetate: 100 wt.-percent
[1]; HO Sunflower oil, storage time 4 w
  stability of 2% solutions of 1-acetoxychavicol acetate: 100 wt.-percent
[1]; HO Sunflower oil, storage time 5 w
  stability of 2% solutions of 1-acetoxychavicol acetate: 100 wt.-percent
[1]; HO Sunflower oil, storage time 6 w
  stability of 2% solutions of 1-acetoxychavicol acetate: 100 wt.-percent
[1]; HO Sunflower oil, storage time 7 w
  stability of 2% solutions of 1-acetoxychavicol acetate: 100 wt.-percent
[1]; HO Sunflower oil, storage time 8 w
  stability of 2% solutions of 1-acetoxychavicol acetate: 100 wt.-percent
[1]; HO Sunflower oil, storage time 9 w
  stability of 2% solutions of 1-acetoxychavicol acetate: 100 wt.-percent
[1]; HO Sunflower oil, storage time 10 w
  stability of 2% solutions of 1-acetoxychavicol acetate: 100 wt.-percent
[1]; HO Sunflower oil, storage time 15 w
  stability of 2% solutions of 1-acetoxychavicol acetate: 100 wt.-percent
[1]; HO Sunflower oil, storage time 20 w
  stability of 2% solutions of 1-acetoxychavicol acetate: 90 wt.-percent
[1]; Olive oil, storage time 0 w
  stability of 2% solutions of 1-acetoxychavicol acetate: 100 wt.-percent
[1]; Olive oil, storage time 1 w
  stability of 2% solutions of 1-acetoxychavicol acetate: 100 wt.-percent
[1]; Olive oil, storage time 2 w
  stability of 2% solutions of 1-acetoxychavicol acetate: 100 wt.-percent
[1]; Olive oil, storage time 3 w
  stability of 2% solutions of 1-acetoxychavicol acetate: 100 wt.-percent
[1]; Olive oil, storage time 4 w
  stability of 2% solutions of 1-acetoxychavicol acetate: 100 wt.-percent
[1]; Olive oil, storage time 5 w
  stability of 2% solutions of 1-acetoxychavicol acetate: 100 wt.-percent
[1]; Olive oil, storage time 6 w
  stability of 2% solutions of 1-acetoxychavicol acetate: 100 wt.-percent
[1]; Olive oil, storage time 7 w
  stability of 2% solutions of 1-acetoxychavicol acetate: 95 wt.-percent
[1]; Olive oil, storage time 8 w
  stability of 2% solutions of 1-acetoxychavicol acetate: 95 wt.-percent
[1]; Olive oil, storage time 9 w
  stability of 2% solutions of 1-acetoxychavicol acetate: 95 wt.-percent
[1]; Olive oil, storage time 10 w
  stability of 2% solutions of 1-acetoxychavicol acetate: 90 wt.-percent
[1]; Olive oil, storage time 15 w
  stability of 2% solutions of 1-acetoxychavicol acetate: 90 wt.-percent
[1]; Olive oil, storage time 20 w
  stability of 2% solutions of 1-acetoxychavicol acetate: 85 wt.-percent
[1]; Peanut oil, storage time 0 w
  stability of 2% solutions of 1-acetoxychavicol acetate: 100 wt.-percent
[1]; Peanut oil, storage time 1 w
  stability of 2% solutions of 1-acetoxychavicol acetate: 100 wt.-percent
[1]; Peanut oil, storage time 2 w
  stability of 2% solutions of 1-acetoxychavicol acetate: 100 wt.-percent
[1]; Peanut oil, storage time 3 w
  stability of 2% solutions of 1-acetoxychavicol acetate: 100 wt.-percent
[1]; Peanut oil, storage time 4 w
  stability of 2% solutions of 1-acetoxychavicol acetate: 100 wt.-percent
[1]; Peanut oil, storage time 5 w
  stability of 2% solutions of 1-acetoxychavicol acetate: 100 wt.-percent
[1]; Peanut oil, storage time 6 w
  stability of 2% solutions of 1-acetoxychavicol acetate: 100 wt.-percent
[1]; Peanut oil, storage time 7 w
  stability of 2% solutions of 1-acetoxychavicol acetate: 95 wt.-percent
[1]; Peanut oil, storage time 8 w
  stability of 2% solutions of 1-acetoxychavicol acetate: 95 wt.-percent
[1]; Peanut oil, storage time 9 w
  stability of 2% solutions of 1-acetoxychavicol acetate: 95 wt.-percent
[1]; Peanut oil, storage time 10 w
  stability of 2% solutions of 1-acetoxychavicol acetate: 90 wt.-percent
[1]; Peanut oil, storage time 15 w
  stability of 2% solutions of 1-acetoxychavicol acetate: 90 wt.-percent
[1]; Peanut oil, storage time 20 w
  stability of 2% solutions of 1-acetoxychavicol acetate: 85 wt.-percent
[1]; Sesame oil, storage time 0 w
  stability of 2% solutions of 1-acetoxychavicol acetate: 100 wt.-percent
[1]; Sesame oil, storage time 1 w
  stability of 2% solutions of 1-acetoxychavicol acetate: 100 wt.-percent
[1]; Sesame oil, storage time 2 w
  stability of 2% solutions of 1-acetoxychavicol acetate: 100 wt.-percent
[1]; Sesame oil, storage time 3 w
  stability of 2% solutions of 1-acetoxychavicol acetate: 100 wt.-percent
[1]; Sesame oil, storage time 4 w
  stability of 2% solutions of 1-acetoxychavicol acetate: 100 wt.-percent
[1]; Sesame oil, storage time 5 w
  stability of 2% solutions of 1-acetoxychavicol acetate: 100 wt.-percent
[1]; Sesame oil, storage time 6 w
  stability of 2% solutions of 1-acetoxychavicol acetate: 100 wt.-percent
[1]; Sesame oil, storage time 7 w
  stability of 2% solutions of 1-acetoxychavicol acetate: 95 wt.-percent
[1]; Sesame oil, storage time 8 w
  stability of 2% solutions of 1-acetoxychavicol acetate: 95 wt.-percent
[1]; Sesame oil, storage time 9 w
  stability of 2% solutions of 1-acetoxychavicol acetate: 95 wt.-percent
[1]; Sesame oil, storage time 10 w
  stability of 2% solutions of 1-acetoxychavicol acetate: 90 wt.-percent
[1]; Sesame oil, storage time 15 w
  stability of 2% solutions of 1-acetoxychavicol acetate: 90 wt.-percent
[1]; Sesame oil, storage time 20 w
  stability of 2% solutions of 1-acetoxychavicol acetate: 85 wt.-percent
[1]; Shampoo, storage time 0 w
  stability of 2% solutions of 1-acetoxychavicol acetate: 100 wt.-percent
[1]; Shampoo, storage time 1 w
  stability of 2% solutions of 1-acetoxychavicol acetate: 80 wt.-percent
[1]; Shampoo, storage time 2 w
  stability of 2% solutions of 1-acetoxychavicol acetate: 60 wt.-percent
[1]; Shampoo, storage time 3 w
  stability of 2% solutions of 1-acetoxychavicol acetate: 55 wt.-percent
[1]; Shampoo, storage time 4 w
  stability of 2% solutions of 1-acetoxychavicol acetate: 50 wt.-percent
[1]; Shampoo, storage time 5 w
  stability of 2% solutions of 1-acetoxychavicol acetate: 40 wt.-percent
[1]; Shampoo, storage time 6 w
  stability of 2% solutions of 1-acetoxychavicol acetate: 35 wt.-percent
[1]; Shampoo, storage time 7 w
  stability of 2% solutions of 1-acetoxychavicol acetate: 30 wt.-percent
[1]; Shampoo, storage time 8 w
  stability of 2% solutions of 1-acetoxychavicol acetate: 25 wt.-percent
[1]; Shampoo, storage time 9 w
  stability of 2% solutions of 1-acetoxychavicol acetate: 20 wt.-percent
[1]; Shampoo, storage time 10 w
  stability of 2% solutions of 1-acetoxychavicol acetate: 10 wt.-percent
[1]; Shampoo, storage time 15 w
  stability of 2% solutions of 1-acetoxychavicol acetate: 0 wt.-percent
[1]; Shampoo, storage time 20 w
  stability of 2% solutions of 1-acetoxychavicol acetate: 0 wt.-percent
[1]; solution in rapeseed oil
  stability: particularly stable
[1]; solution in sunflower oil
  stability: particularly stable
[2]; in aqueous solution
  stability: instable
[2]; in vegetable oil, at up to 120°C
  time stable: at least 1 h
[2]; solution with 30-40% ethanol, neutral pH, room temperature
  stability: stable for several month
[2]; under thermal treatment, e.g. distillation
  stability: instable
[3]
  stability: remains stable over months

— EP4464309A1, “ANTIDANDRUFF COMPOSITION COMPRISING 1-ACETOXYCHAVICOL ACETATE” (Analyticon Discovery GmbH, priority 2023, dated 2024)
